Source: patent US8822517B2, “Arylosulfonamides for the treatment of CNS diseases” (Adamed SP. Z O.O., priority 2010, dated 2014)

Columns and labels:
[1] = molecular target: T1, serotonine transporter (SERT) receptor (Homo sapiens, UniProt P31645); assay: Binding assay SERT (h), [3H]imipramine, CHO cells; conditions: read-out: SERT [%]
T1 construct: expressed in transfected cells; host or cells: CHO cells
Method in brief: (§1)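 Test conc. 1×10^−6 M. Read-out by scintillation counting. Specific = total − nonspecific (excess cold ligand).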

adrenergic α1 receptor = assay: Binding assay α1 (non-selective), [3H]prazosin, rat cerebral cortex; conditions: percent inhibition of control specific binding; compounds tested at 1×10^−6 M
Method in brief: as §1

dopaminergic D3 receptor = dopaminergic D3 receptor (Homo sapiens, UniProt P35462); assay: Binding assay D3 (h), [3H]methyl-spiperone, CHO cells; set-up: expressed in transfected cells; host or cells: CHO cells; conditions: read-out: D3 [%]
Method in brief: as §1

muscarinic M3 receptor = molecular target: T2, muscarinic M3 receptor (Homo sapiens, UniProt P20309); assay: Binding assay M3 (h), [3H]4-DAMP, CHO cells; conditions: read-out: M3 [%]
T2 construct: expressed in transfected cells; host or cells: CHO cells
Method in brief: as §1

[2] = molecular target: T3, serotoninergic receptor 5-HT2C (Homo sapiens, UniProt P28335); assay: Binding assay 5-HT2C (h), [3H]mesulergine, HEK-293 cells; conditions: read-out: 5-HT2C [%]
T3 construct: expressed in transfected cells; host or cells: HEK-293 cells
T3 sequence (P28335 33-458): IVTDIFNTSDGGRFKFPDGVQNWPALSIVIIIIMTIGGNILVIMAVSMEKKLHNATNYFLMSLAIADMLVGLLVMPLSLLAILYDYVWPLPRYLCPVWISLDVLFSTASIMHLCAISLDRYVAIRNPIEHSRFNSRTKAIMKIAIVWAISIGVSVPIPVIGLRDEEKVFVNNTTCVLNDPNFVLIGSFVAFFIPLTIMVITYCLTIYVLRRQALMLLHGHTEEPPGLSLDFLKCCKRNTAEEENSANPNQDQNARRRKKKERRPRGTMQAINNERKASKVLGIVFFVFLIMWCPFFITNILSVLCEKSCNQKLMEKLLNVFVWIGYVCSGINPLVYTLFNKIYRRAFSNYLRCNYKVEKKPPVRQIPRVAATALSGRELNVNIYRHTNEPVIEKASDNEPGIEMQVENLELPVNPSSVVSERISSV
Method in brief: as §1

adrenergic α2C receptor = molecular target: T4, adrenergic α2C receptor (Homo sapiens, UniProt P18825); assay: Binding assay α2C (h), [3H]RX 821002, CHO cells; set-up: expressed in transfected cells; host or cells: CHO cells; conditions: read-out: α2C [%]
T4 sequence (P18825 1-462): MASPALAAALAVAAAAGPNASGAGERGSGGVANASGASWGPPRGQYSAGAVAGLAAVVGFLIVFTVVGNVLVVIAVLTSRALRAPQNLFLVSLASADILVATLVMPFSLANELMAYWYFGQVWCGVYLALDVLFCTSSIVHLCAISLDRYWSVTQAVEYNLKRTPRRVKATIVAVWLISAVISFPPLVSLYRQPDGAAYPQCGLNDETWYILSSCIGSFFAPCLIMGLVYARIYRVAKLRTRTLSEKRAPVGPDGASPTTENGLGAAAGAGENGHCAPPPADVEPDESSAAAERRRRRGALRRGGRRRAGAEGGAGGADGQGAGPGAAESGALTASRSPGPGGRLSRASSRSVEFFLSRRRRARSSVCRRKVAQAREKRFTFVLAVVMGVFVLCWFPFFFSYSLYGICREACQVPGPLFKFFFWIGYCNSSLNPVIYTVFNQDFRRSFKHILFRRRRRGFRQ
Method in brief: as §1

[3] = molecular target: histaminergic H1 receptor (Homo sapiens, UniProt P35367); assay: Binding assay H1 (h), [3H]pyrilamine, HEK-293 cells; set-up: expressed in transfected cells; host or cells: HEK-293 cells; conditions: read-out: H1 [%]
Method in brief: as §1

[4] = molecular target: T5, serotoninergic 5-HT6 receptor (Homo sapiens, UniProt P50406); assay: Binding assay 5-HT6 (h), [3H]LSD, CHO cells; set-up: expressed in transfected cells; host or cells: CHO cells; conditions: read-out: 5-HT6
Method in brief: as §1

[5] = molecular target: T6, serotoninergic 5-HT7 receptor (Homo sapiens, UniProt P34969); assay: Binding assay 5-HT7 (h), [3H]LSD, CHO cells; set-up: expressed in transfected cells; host or cells: CHO cells; conditions: read-out: 5-HT7
Method in brief: as §1

dopaminergic D2 receptor = dopaminergic D2 receptor (Homo sapiens, UniProt P14416); assay: Binding assay D2S (h), [3H]methyl-spiperone, HEK-293 cells; set-up: expressed in transfected cells; host or cells: HEK-293 cells; conditions: read-out: D2 [%]
Method in brief: as §1

[6] = molecular target: T5, serotoninergic 5-HT6 receptor; assay: Cellular functional assay, serotoninergic 5-HT6 receptor (agonism/antagonism); assay type: cell-based; conditions: for activation at 1 µM: agonist effect, percent of control specific agonist response, compounds tested at 1×10^−6M, read-out: 5-HT6-ag [%]; for inhibition at 1 µM: read-out: 5-HT6-antag. [%]
Method: (§2) The compounds were tested at the concentration of 1×10^−6M.
(§3) In the Tables ag refers to agonism, and antag to antagonism).

[7] = molecular target: serotoninergic 5-HT2A receptor (Homo sapiens, UniProt P28223); assay: Binding assay 5-HT2A (h), [3H]ketanserin, HEK-293 cells; set-up: expressed in transfected cells; host or cells: HEK-293 cells; conditions: read-out: 5-HT2A
Method in brief: as §1

[8] = molecular target: T6, serotoninergic 5-HT7 receptor; assay: Cellular functional assay, serotoninergic 5-HT7 receptor (agonism/antagonism); assay type: cell-based; conditions: for activation at 1 µM: agonist effect, percent of control specific agonist response, compounds tested at 1×10^−6M, read-out: 5-HT7-ag [%]; for inhibition at 1 µM: read-out: 5-HT7-antag. [%]
Method: as §2, §3

[9] = molecular target: T7, serotoninergic 5-HT1A receptor (Homo sapiens, UniProt P08908); assay: Binding assay 5-HT1A (h), [3H]8-OH-DPAT, HEK-293 cells; set-up: expressed in transfected cells; host or cells: HEK-293 cells; conditions: read-out: 5-HT1A
T7 sequence (P08908 1-422): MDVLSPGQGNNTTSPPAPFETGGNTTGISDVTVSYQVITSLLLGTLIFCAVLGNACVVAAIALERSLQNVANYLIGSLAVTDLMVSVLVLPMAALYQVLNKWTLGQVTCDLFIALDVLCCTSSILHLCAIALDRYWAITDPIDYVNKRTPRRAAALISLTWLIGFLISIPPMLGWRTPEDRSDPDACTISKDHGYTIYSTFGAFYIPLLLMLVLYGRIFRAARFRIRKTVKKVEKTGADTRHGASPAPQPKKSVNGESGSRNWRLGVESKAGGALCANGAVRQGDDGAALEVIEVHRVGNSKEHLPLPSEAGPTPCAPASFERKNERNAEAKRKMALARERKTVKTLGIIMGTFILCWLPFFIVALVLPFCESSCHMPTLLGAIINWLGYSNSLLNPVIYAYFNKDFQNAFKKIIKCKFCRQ
Method in brief: as §1

sigma σ receptor = assay: Binding assay σ (non-selective), [3H]DTG, rat cerebral cortex; conditions: percent inhibition of control specific binding; compounds tested at 1×10^−6 M
Method in brief: as §1

T6 sequence (P34969 whole entry): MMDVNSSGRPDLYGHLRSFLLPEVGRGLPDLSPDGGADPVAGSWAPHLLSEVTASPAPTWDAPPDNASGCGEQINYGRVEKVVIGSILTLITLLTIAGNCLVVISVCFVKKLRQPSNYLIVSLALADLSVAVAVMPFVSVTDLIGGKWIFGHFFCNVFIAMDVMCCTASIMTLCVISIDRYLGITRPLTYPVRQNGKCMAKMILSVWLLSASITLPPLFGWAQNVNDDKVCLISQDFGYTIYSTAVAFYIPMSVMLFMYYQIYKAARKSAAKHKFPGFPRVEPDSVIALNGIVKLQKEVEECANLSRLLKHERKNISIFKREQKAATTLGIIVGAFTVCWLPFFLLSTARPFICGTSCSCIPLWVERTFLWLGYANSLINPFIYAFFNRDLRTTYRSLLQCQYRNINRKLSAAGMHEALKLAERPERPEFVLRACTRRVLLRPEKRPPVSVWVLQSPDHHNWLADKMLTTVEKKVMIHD
T1 sequence (P31645 whole entry): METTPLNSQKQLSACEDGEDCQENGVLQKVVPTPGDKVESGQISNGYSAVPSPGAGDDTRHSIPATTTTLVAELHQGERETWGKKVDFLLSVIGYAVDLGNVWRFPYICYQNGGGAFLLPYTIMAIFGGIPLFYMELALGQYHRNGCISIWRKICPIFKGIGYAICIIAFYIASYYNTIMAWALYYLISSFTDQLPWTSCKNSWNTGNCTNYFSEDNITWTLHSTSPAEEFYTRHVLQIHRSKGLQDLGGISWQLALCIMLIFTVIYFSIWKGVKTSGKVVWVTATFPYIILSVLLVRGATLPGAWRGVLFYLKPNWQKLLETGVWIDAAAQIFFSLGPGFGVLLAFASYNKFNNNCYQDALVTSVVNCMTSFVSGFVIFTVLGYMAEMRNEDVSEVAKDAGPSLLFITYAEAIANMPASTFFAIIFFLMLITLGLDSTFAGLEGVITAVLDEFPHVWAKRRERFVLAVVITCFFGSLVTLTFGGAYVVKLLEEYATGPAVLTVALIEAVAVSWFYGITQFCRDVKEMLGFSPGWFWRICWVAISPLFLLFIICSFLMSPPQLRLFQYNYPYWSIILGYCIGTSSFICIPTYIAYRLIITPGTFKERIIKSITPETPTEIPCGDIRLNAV
T5 sequence (P50406 whole entry): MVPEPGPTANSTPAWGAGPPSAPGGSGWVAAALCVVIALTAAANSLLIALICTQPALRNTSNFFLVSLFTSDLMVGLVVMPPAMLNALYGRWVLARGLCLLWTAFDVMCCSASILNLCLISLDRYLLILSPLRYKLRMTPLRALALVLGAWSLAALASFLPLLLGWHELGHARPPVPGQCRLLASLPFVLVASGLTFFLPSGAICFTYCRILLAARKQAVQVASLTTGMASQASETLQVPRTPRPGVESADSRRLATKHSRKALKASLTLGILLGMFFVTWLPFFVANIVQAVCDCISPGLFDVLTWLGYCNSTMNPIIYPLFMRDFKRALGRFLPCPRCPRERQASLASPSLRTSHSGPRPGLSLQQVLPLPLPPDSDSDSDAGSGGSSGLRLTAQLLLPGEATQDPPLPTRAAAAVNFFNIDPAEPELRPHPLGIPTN
Chain of dopaminergic D2 receptor (P14416 1-414 isoform P14416-2): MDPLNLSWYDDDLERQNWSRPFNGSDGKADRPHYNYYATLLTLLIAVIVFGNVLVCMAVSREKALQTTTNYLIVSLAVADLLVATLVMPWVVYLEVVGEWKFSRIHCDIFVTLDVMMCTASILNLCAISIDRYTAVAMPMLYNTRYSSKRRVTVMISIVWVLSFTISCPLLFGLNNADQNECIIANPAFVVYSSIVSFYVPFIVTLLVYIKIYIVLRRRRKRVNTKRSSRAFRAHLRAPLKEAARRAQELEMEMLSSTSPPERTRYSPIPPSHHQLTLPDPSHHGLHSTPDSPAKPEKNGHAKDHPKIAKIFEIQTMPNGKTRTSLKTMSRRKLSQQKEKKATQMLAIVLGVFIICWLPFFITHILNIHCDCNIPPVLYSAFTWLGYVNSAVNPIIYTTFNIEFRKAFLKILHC
Chain of serotoninergic 5-HT2A receptor (P28223 whole entry): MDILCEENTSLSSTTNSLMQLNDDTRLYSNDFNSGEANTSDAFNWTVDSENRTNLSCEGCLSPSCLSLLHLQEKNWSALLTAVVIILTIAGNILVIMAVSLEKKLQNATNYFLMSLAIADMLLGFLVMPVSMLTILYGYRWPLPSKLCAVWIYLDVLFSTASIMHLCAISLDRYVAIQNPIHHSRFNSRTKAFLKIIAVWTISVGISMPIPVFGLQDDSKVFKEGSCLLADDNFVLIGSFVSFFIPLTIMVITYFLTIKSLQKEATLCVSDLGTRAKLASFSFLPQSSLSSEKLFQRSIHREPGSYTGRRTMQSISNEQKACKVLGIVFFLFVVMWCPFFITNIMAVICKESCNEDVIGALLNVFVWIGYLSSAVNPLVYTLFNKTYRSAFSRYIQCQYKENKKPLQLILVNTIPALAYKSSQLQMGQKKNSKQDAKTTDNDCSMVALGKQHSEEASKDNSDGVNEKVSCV
Chain of dopaminergic D3 receptor (P35462 whole entry): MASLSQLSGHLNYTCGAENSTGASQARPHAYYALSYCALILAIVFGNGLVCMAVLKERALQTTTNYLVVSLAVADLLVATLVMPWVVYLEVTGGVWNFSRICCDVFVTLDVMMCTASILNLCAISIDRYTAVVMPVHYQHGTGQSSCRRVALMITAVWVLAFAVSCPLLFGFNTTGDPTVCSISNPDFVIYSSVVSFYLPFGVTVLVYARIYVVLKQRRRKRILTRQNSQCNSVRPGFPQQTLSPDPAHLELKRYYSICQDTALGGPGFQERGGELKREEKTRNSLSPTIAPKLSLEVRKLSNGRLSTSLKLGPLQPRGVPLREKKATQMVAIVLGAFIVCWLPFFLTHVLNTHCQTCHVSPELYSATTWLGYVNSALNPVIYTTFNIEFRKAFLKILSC
T2 sequence (P20309 whole entry): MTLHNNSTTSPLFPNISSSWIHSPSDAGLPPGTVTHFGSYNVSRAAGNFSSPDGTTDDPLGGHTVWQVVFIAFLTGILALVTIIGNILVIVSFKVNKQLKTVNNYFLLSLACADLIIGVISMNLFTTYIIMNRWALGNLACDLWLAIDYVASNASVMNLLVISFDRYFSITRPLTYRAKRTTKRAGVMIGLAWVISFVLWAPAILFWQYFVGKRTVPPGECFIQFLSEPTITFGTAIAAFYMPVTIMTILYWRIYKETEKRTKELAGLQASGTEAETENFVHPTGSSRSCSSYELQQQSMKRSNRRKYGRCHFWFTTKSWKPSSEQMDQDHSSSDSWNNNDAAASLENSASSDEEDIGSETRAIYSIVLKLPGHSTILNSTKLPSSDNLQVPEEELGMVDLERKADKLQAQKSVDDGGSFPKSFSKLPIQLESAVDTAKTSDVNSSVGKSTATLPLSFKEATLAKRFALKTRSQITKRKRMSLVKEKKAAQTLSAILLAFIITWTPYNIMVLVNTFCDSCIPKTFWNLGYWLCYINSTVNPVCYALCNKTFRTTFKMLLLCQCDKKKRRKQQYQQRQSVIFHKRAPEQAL
Chain of histaminergic H1 receptor (P35367 whole entry): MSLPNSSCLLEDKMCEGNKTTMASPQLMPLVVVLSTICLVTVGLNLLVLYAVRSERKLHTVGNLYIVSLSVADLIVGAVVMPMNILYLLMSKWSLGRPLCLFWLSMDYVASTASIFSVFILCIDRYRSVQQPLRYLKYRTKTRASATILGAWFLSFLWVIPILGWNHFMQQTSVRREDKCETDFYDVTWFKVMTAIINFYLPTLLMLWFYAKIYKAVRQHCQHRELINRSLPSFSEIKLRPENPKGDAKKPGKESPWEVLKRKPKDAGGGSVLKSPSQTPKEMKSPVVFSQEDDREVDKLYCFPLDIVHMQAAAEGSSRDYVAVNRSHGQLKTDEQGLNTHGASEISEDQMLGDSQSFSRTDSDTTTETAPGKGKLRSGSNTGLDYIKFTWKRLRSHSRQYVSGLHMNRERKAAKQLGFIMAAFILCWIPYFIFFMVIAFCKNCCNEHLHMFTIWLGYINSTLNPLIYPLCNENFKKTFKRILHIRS

Structure (SMILES)	inhibition at 1 µM [1]	α1 [%] (adrenergic α1 receptor)	inhibition at 1 µM (dopaminergic D3 receptor)	inhibition at 1 µM (muscarinic M3 receptor)	inhibition at 1 µM [2]	inhibition at 1 µM (adrenergic α2C receptor)	inhibition at 1 µM [3]	inhibition at 1 µM [4]	inhibition at 1 µM [5]	inhibition at 1 µM (dopaminergic D2 receptor)	activation at 1 µM [6]	inhibition at 1 µM [6]	inhibition at 1 µM [7]	activation at 1 µM [8]	inhibition at 1 µM [8]	inhibition at 1 µM [9]	σ [%] (sigma σ receptor)
O=c1[nH]c2ccc(S(=O)(=O)NCCCCN3CCN(c4nsc5ccccc45)CC3)cc2o1 [Compound 4, N-(4-(4-(1,2-Benzothiazol-3-yl)piperazin-1-yl)butyl)-2-oxo-3H-1,3-benzoxazole-6-sulphonamide]	26%	96%	98%	3%	91%	96%	100%	87%	97%	96%	-1%	37%	99%	-1%	81%	99%	1%
O=S(=O)(NCCN1CCN(c2nsc3ccccc23)CC1)c1cccc2ccccc12 [Compound 9, N-(2-(4-(1,2-Benzothiazol-3-yl)piperazin-1-yl)ethyl)naphthalene-1-sulphonamide]	29%	74%	90%	-2%	24%	98%	77%	22%	98%	91%	0%	-4%	99%	0%	48%	98%	23%
O=S(=O)(NCCN1CCN(c2nsc3ccccc23)CC1)c1ccc2ccccc2c1 [Compound 10, N-(2-(4-(1,2-Benzothiazol-3-yl)piperazin-1-yl)ethyl)naphthalene-2-sulphonamide]	50%	79%	97%	-2%	54%	98%	81%	37%	99%	94%	1%	-16%	99%	0%	85%	97%	31%
Cc1cccc(S(=O)(=O)NCCN2CCN(c3nsc4ccccc34)CC2)c1 [Compound 11, N-(2-(4-(1,2-Benzothiazol-3-yl)piperazin-1-yl)ethyl)-3-methylbenzenesulphonamide]	1%	85%	91%	-6%	40%	94%	74%	54%	99%	89%	-1%	-10%	99%	0%	85%	99%	21%
O=c1[nH]c2ccc(S(=O)(=O)NCCN3CCN(c4nsc5ccccc45)CC3)cc2o1 [Compound 12, N-(2-(4-(1,2-Benzothiazol-3-yl)piperazin-1-yl)ethyl)-2-oxo-3H-1,3-benzoxazole-6-sulphonamide]	7%	67%	92%	-9%	17%	83%	79%	80%	89%	93%	-1%	-2%	99%	-1%	68%	99%	4%
Cc1cccc(S(=O)(=O)NCCCCN2CCC(c3noc4cc(F)ccc34)CC2)c1 [Compound 19, N-[4-[4-(6-Fluoro-1,2-benzoxazol-3-yl)piperidin-1-yl]butyl]-3-methylbenzenesulphonamide]	8%	99%	90%	9%	56%	100%	79%	69%	100%	97%	-1%	23%	100%	-1%	99%	64%	92%
O=S(=O)(NCCN1CC=C(c2c[nH]c3ccc(F)cc23)CC1)c1cccc(F)c1 [Compound 439, 3-Fluoro-N-[2-[4-(5-fluoro-1H-indol-3-yl)-3,6-dihydro-2H-pyridin-1-yl]ethyl]benzenesulphonamide]	93%	27%	95%	16%	41%	68%	18%	92%	78%	97%	–	–	83%	–	–	99%	80%
